pIC50: −log10 of the molar value.
Key:
[1] = biological target: Human recombinant Acetyl-CoA Carboxylase 2 (ACC2) (Homo sapiens, UniProt O00763); assay: Assay Y: ACC2 inhibition, inorganic phosphate (Malachite Green); format: biochemical; conditions: Assay Y: room temperature, 3 hr, 15 min preincubation
Method: (§1) Preincubation of 6 μL enzyme together with 0.3 μL compound for 15 min was done before the reaction was initiated by the addition of 4 μL substrate. […] After 3 hr the reaction was stopped by addition of 60 μL of water followed by 30 μL Malachite Green solution. The Malachite Green solution was prepared by mixing 16.4 mL ammonium molybdate solution (7.5%), 1.64 mL Tween (11%) with 82 mL Malachite Green/H2SO4-solution (0.7 g Malachite Green to 1000 mL of 10% (v/v) H2SO4). Plates were left for 10 min at room temperature before reading the absorbance at 670 nm. All compounds were tested in triplicate at 10 different concentrations. Control compound (0, 50 and 100% effect) was included on each plate. […] An IC50 value was derived by non-linear regression curve fitting using the following equation: […]))) where A is the non-specific binding, B is the total binding, C is the IC50 and D is the slope. Saturation binding Kd and Bmax were derived using the equation y=((B1 max*x)/(Kd+x)).

[2] = biological target: Human recombinant Acetyl-CoA Carboxylase 1 (ACC1) (Homo sapiens, UniProt Q13085); assay: Assay Y: ACC1 inhibition, inorganic phosphate (Malachite Green); format: biochemical; conditions: Assay Y: room temperature, 3 hr, 15 min preincubation
Method: as §1

Chain of Human recombinant Acetyl-CoA Carboxylase 2 (ACC2) (O00763 whole entry): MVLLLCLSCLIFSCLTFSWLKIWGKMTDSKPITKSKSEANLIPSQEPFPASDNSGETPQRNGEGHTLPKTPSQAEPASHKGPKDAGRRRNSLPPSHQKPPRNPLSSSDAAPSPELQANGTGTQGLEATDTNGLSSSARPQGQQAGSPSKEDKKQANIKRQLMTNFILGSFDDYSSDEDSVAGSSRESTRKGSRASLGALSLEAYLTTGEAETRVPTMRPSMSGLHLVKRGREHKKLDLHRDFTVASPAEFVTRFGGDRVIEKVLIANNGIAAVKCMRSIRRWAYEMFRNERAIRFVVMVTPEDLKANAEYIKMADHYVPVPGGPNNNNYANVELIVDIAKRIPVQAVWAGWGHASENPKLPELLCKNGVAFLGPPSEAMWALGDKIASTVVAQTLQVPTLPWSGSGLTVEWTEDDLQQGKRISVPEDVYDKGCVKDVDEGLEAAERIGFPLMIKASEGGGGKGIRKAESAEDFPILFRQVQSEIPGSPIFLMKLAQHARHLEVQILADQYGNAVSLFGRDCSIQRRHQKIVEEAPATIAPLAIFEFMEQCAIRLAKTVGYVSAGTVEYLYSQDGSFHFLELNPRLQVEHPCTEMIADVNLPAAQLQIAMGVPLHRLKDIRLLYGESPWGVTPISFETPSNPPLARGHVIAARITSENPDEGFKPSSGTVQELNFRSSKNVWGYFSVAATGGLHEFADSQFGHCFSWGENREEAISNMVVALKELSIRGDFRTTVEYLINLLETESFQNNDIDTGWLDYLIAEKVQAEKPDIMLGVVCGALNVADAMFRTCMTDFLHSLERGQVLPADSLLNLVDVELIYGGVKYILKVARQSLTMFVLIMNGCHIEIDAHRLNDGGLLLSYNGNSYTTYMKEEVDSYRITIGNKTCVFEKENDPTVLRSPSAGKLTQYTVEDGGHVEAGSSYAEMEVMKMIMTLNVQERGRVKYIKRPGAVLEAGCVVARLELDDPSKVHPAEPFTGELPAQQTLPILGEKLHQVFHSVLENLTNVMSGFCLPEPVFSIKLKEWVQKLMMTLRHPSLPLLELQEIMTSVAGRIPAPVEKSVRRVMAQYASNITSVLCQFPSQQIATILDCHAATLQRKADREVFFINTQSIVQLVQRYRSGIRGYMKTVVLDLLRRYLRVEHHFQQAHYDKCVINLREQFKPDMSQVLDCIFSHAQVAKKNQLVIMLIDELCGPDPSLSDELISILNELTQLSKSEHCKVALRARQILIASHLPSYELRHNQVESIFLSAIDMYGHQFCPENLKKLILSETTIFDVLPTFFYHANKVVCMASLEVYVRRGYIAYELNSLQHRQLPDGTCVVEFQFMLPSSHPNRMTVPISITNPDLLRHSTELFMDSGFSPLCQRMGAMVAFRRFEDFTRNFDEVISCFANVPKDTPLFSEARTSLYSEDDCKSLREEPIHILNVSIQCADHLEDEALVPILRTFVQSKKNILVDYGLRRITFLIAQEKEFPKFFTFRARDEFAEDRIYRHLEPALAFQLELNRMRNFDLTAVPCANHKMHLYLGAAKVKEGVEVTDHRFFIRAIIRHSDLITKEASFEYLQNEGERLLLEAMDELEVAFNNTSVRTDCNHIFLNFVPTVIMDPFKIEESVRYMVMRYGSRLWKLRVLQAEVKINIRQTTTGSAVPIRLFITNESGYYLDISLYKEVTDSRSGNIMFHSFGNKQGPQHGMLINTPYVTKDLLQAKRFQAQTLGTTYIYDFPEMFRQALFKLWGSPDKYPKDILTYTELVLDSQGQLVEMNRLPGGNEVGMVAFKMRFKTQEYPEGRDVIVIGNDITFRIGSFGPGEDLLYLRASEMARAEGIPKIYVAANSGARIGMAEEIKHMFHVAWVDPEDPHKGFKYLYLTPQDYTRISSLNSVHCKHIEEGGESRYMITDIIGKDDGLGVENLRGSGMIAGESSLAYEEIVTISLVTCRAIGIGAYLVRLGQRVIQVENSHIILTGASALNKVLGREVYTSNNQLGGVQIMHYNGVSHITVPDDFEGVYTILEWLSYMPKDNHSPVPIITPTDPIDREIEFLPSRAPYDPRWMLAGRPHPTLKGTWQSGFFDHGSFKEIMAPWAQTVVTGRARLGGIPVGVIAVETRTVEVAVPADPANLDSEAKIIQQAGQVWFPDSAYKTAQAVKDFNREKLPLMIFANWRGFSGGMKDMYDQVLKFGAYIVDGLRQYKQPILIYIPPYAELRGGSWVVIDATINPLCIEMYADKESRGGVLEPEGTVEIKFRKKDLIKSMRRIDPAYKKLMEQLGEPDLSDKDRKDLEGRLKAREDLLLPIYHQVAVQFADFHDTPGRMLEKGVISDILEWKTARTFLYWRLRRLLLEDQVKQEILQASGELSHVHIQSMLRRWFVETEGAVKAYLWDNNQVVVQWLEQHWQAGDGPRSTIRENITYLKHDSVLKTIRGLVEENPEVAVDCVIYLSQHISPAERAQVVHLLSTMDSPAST

| Structure (SMILES) | pIC50 [1] | pIC50 [2] |
| --- | --- | --- |
| CCOc1ccc(-c2cc(C(=O)NC[C@H]3CC[C@H](CNC(=O)OC(C)(C)C)CC3)ccn2)cn1 [Example 46, tert-Butyl {[trans-4-({[(6′-ethoxy-2,3′-bipyridin-4-yl)carbonyl]amino}methyl)cyclohexyl]methyl}carbamate] | 5.02 | < 4.70 |
| COc1cc(C(=O)NC[C@H]2CC[C@H](CNC(=O)OC(C)(C)C)CC2)cc(-c2ccc(CN)cc2)n1 [Example 36, tert-Butyl ({trans-4-[({2-[4-(aminomethyl)phenyl]-6-methoxyisonicotinoyl}-amino)methyl]cyclohexyl}methyl)carbamate] | 5.80 | 5.40 |
| COc1ccc(-c2cc(C(=O)NC[C@H]3CC[C@H](CNC(=O)OC(C)(C)C)CC3)ccn2)c(OC)n1 [Example 48, tert-Butyl {[trans-4-({[(2′,6′-dimethoxy-2,3′-bipyridin-4-yl)carbonyl]amino}methyl)-cyclohexyl]methyl}carbamate] | 5.01 | < 4.70 |
| CCOC(=O)NC[C@H]1CC[C@H](CNC(=O)c2cc(-c3ccccc3)nc3ccccc23)CC1 [Example 62, Ethyl {[trans-4-({[(2-phenylquinolin-4-yl)carbonyl]amino}methyl)cyclohexyl]methyl}-carbamate] | 5.56 | 5.51 |
| CC(C)(C)OC(=O)NC[C@H]1CC[C@H](CNS(=O)(=O)c2ccc3ncsc3c2)CC1 [Example 78, tert-Butyl [(trans-4-{[(1,3-benzothiazol-6-ylsulfonyl)amino]methyl}cyclohexyl)-methyl]carbamate] | 5.50 | 5.18 |
| CC(C)(C)OC(=O)NC[C@H]1CC[C@H](CNC(=O)c2cc(-c3ccc(Cl)cc3)nc3ccccc23)CC1 [Example 21, tert-Butyl ({trans-4-[({[2-(4-chlorophenyl)quinolin-4-yl]carbonyl}amino)methyl]cyclo-hexyl}methyl)carbamate] | 6.01 | 5.83 |
| CCOC(=O)NC[C@H]1CC[C@H](CNC(=O)c2cc(-c3ccc(SC)cc3)nc3ccccc23)CC1 [Example 29, Ethyl [(trans-4-{[({2-[4-(methylthio)phenyl]quinolin-4-yl}carbonyl)amino]methyl}-cyclohexyl)methyl]carbamate] | 5.90 | 5.39 |
| CC(C)(C)OC(=O)NC[C@H]1CC[C@H](CNC(=O)c2cncc(-c3ccccc3)c2)CC1 [Example 44, tert-Butyl {[trans-4-({[(5-phenylpyridin-3-yl)carbonyl]amino}methyl)cyclohexyl]-methyl}carbamate] | 5.01 | 4.89 |
| COc1ccc(-c2cc(C(=O)NC[C@H]3CC[C@H](CNC(=O)OC(C)(C)C)CC3)ccn2)cc1 [Example 42, tert-Butyl {[trans-4-({[2-(4-methoxyphenyl)isonicotinoyl]amino}methyl)cyclo-hexyl]methyl}carbamate] | 5.21 | 4.89 |
| C=CCN(C[C@H]1CC[C@H](CNC(=O)OC(C)(C)C)CC1)S(=O)(=O)c1ccc2ccccc2c1 [Example 84, tert-Butyl [(trans-4-{[allyl(2-naphthylsulfonyl)amino]methyl}cyclohexyl)methyl]-carbamate] | 5.34 | < 4.70 |
| Cc1nc(-c2ccc(S(=O)(=O)N(C)C[C@H]3CC[C@H](CNC(=O)OC(C)(C)C)CC3)s2)cs1 [Example 89, tert-Butyl ({trans-4-[(methyl {[5-(2-methyl-1,3-thiazol-4-yl)-2-thienyl]sulfonyl}-amino)methyl]cyclohexyl}methyl)carbamate] | 5.52 | < 4.70 |
| CC(C)(C)OC(=O)NC[C@H]1CC[C@H](CNS(=O)(=O)c2ccsc2)CC1 [Example 74, tert-Butyl [(trans-4-{[(3-thienylsulfonyl)amino]methyl}cyclohexyl)methyl]-carbamate] | 5.02 | < 4.70 |
| CN1CCC(OC(=O)NC[C@H]2CC[C@H](CNC(=O)c3cc(-c4ccc(N5CCN(C)CC5)nc4)nc4ccccc34)CC2)CC1 [Example 110, 1-Methylpiperidin-4-yl-[(trans-4-{[({2-[6-(4-methylpiperazin-1-yl)pyridin-3-yl]quinolin-4-yl}carbonyl)amino]methyl}cyclohexyl)methyl]carbamate] | 5.36 | < 4.70 |
| CCCN(C[C@H]1CC[C@H](CNC(=O)OC(C)(C)C)CC1)S(=O)(=O)c1ccc2ccccc2c1 [Example 87, tert-Butyl [(trans-4-{[(2-naphthylsulfonyl)(propyl)amino]methyl}cyclohexyl)methyl]-carbamate] | 5.06 | < 4.70 |
| CC(C)c1ccc(S(=O)(=O)NC[C@H]2CC[C@H](CNC(=O)OC(C)(C)C)CC2)cc1 [Example 68, tert-Butyl {[trans-4-({[(4-isopropylphenyl)sulfonyl]amino}methyl)cyclohexyl]methyl}-carbamate] | 5.58 | < 4.70 |
| CCOC(=O)NC[C@H]1CC[C@H](CNC(=O)c2cc(-c3ccccc3OC)nc3ccccc23)CC1 [Example 31, Ethyl ({trans-4-[({[2-(2-methoxyphenyl)quinolin-4-yl]carbonyl}amino)methyl]-cyclohexyl}methyl)carbamate] | 5.45 | < 4.70 |

Further compounds by rising pIC50 [1], results first:

| pIC50 [1] | pIC50 [2] | Structure (SMILES) |
| --- | --- | --- |
| 6.02 | 5.48 | CN(C)S(=O)(=O)c1ccc(-c2cc(C(=O)NC[C@H]3CC[C@H](CNC(=O)OC4CCOCC4)CC3)c3ccccc3n2)cc1 [Example 140, Tetrahydro-2H-pyran-4-yl{[trans-4-({[(2-{4-[(dimethylamino)sulfonyl]phenyl}quinolin-4-yl)carbonyl]amino}-methyl)cyclohexyl]-methyl}carbamate] |
| 6.04 | 5.41 | CN(C)S(=O)(=O)c1ccc(-c2cc(C(=O)NC[C@H]3CC[C@H](CNC(=O)O[C@H]4CCOC4)CC3)c3ccccc3n2)cc1 [Example 141, (3S)-Tetrahydrofuran-3-yl{[trans-4-({[(2-{4-[(dimethylamino)sulfonyl]phenyl}quinolin-4-yl)carbonyl]amino}-methyl)cyclohexyl]-methyl}carbamate] |
| 6.25 | < 4.70 | CC(C)(C)OC(=O)NC[C@H]1CC[C@H](CNC(=O)c2cc(-c3ccc(C(F)(F)F)cc3)nc3ccccc23)CC1 [Example 12, tert-Butyl [(trans-4-{[({2-[4-(trifluoromethyl)phenyl]quinolin-4-yl}carbonyl)amino]-methyl}cyclohexyl)methyl]carbamate] |
| 6.31 | 5.87 | CSc1ccc(-c2cc(C(=O)NC[C@H]3CC[C@H](CNC(=O)OC(C)(C)C)CC3)c3ccccc3n2)cc1 [Example 24, tert-Butyl [(trans-4-{[({2-[4-(methylthio)phenyl]quinolin-4-yl}carbonyl)amino]-methyl}cyclohexyl)methyl]carbamate] |
| 6.33 | 5.43 | CC(C)(C)OC(=O)NC[C@H]1CC[C@H](CNC(=O)c2cc(-c3ccc(CN)cc3)ncc2Cl)CC1 [Example 37, tert-Butyl ({trans-4-[({2-[4-(aminomethyl)phenyl]-5-chloroisonicotinoyl}amino)-methyl]cyclohexyl}methyl)carbamate] |
| 6.34 | 5.49 | COc1ccccc1-c1cc(C(=O)NC[C@H]2CC[C@H](CNC(=O)OC(C)(C)C)CC2)c2ccccc2n1 [Example 23, tert-Butyl ({trans-4-[({[2-(2-methoxyphenyl)quinolin-4-yl]carbonyl}amino)methyl]-cyclohexyl}methyl)carbamate] |
| 6.68 | 5.77 | CN1CCN(c2ccc(-c3cc(C(=O)NC[C@H]4CC[C@H](CNC(=O)OC5CCOCC5)CC4)c4ccccc4n3)cn2)CC1 [Example 109, Tetrahydro-2H-pyran-4-yl [(trans-4-{[({2-[6-(4-methylpiperazin-1-yl)pyridin-3-yl]quinolin-4-yl}carbonyl)amino]methyl}cyclohexyl)methyl]carbamate] |
| 6.74 | 5.90 | CN1CCN(c2ccc(-c3cc(C(=O)NC[C@H]4CC[C@H](CNC(=O)O[C@H]5CCOC5)CC4)c4ccccc4n3)cn2)CC1 [Example 116, (3S)-Tetrahydrofuran-3-yl-[(trans-4-{[({2-[6-(4-methylpiperazin-1-yl)pyridin-3-yl]quinolin-4-yl}carbonyl)amino]methyl}cyclohexyl)methyl]carbamate] |
| 7.15 | 5.71 | CC(C)(C)OC(=O)NC[C@H]1CC[C@H](CNC(=O)c2cc(N3CCC(CCO)CC3)nc3ccccc23)CC1 [Example 189, tert-butyl [(trans-4-{[({2-[4-(2-hydroxyethyl)piperidin-1-yl]quinolin-4-yl}carbonyl)amino]methyl}cyclohexyl)methyl]carbamate] |
| 7.30 | 6.70 | CN1CCN(c2ccc(-c3cc(C(=O)NC[C@H]4CC[C@H](CNC(=O)OC(C)(C)C)CC4)c4ccccc4n3)cn2)CC1 [Example 1, tert-butyl [(trans-4-{[({2-[6-(4-methylpiperazin-1-yl)pyridin-3-yl]quinolin-4-yl}carbonyl)amino]methyl}cyclohexyl)methyl]carbamate] |
| 7.52 | 5.59 | CC(C)(C)OC(=O)NC[C@H]1CC[C@H](CNC(=O)c2cc(-c3ccc(N4CC[C@@H](O)C4)nc3)nc3ccccc23)CC1 [Example 147, tert-Butyl{[trans-4-({[(2-{6-[(3R)-3-hydroxypyrrolidin-1-yl]pyridin-3-yl}quinolin-4-yl)carbonyl]amino}-methyl)cyclohexyl]-methyl}carbamate] |
